US20260199365A1, “BIS-SULFONAMIDE SHIP1 ACTIVATORS” (The Research Foundation for the State University of New York, priority 2022, published 2026)

Tests used:
[1] = test system: IL-6 production in BV-2 cells; experiment: ELISA quantitation of IL-6 production in BV-2 cells after stimulation with LPS; format: cell-based, murine; settings: 1 h pretreatment with SHIP1 activator 10 μM, then LPS
Procedure: FIG. 3 presents an ELISA quantitation of IL-6 production in BV-2 cells after stimulation with LPS. BV-2 cells were plated and treated for 1 h with vehicle (Veh, 0.25% DMSO) or SHIP1 activator (10 μM in Veh) prior to addition of LPS (100 ng/ml). Unstimulated BV2 cells treated with Veh are shown as an additional control to assess LPS induction of IL-6. (A) Evaluation of 1, 26, 29 and 53. (B) In a separate experiment, 70, and 71 were evaluated under similar conditions. Bars indicate Mean G SEM; statistical tests: two-way ANOVA with Tukey correction, **** p<0.0001, ** p<0.01.
Given this experience, some of the new activators were evaluated in a cell-based setting. Using the immortalized BV-2 cell line, which is derived from murine microglia and retains many microglial morphological and functional characteristics of microglia, an assay for the anti-inflammatory effects of these activators was developed. This assay involved treatment of the cells with lipopolysaccharides (LPS) to induce IL-6 production which can then be quantified with an ELISA.
Cell culture: The BV2 cell line was obtained from the ATCC (American Type Culture Collection). The ATCC and performs genetic validation on deposited cell lines. For the inflammatory cytokines production studies, BV2 cells were cultured in DMEM/F12 (Corning) 10% HI FBS at 37° C. and 5% CO2 in a humidified incubator and split 1:6 every 3 days with Cellstripper™ (Corning). Cells were kept at 37° C. and 5% CO2 in a humidified incubator.
ELISA measurements: Parental (scrambled guide control) BV2 cells were seeded at 5×10^5/mL, […] in 48 well plate. Cell were treated with […] small molecule or vehicle control (0.5% DMSO) and incubated for 1 h before addition of stimuli. LPS (10 ng/ml, E. coli O111: B4, Sigma) was added to the cells and incubated for 6 h to detect IL-6 production. Supernatants were spun down at 400×g for 5 minutes to remove cell debris and froze at −20° C. for ELISAs. IL-6 levels were quantified from cellular supernatants with ELISA MAX™ Standard Set Mouse IL-6 kit (Biolegend), following manufacturer's recommendations. We detected absorbance at 450 nm and removed 570 nm background absorbance, with a plate reader (Synergy 2, BioTek). All experiments were repeated three times and each value was reported as mean±SEM from biological replicates in the same assay. All statistical analysis were performed using GraphPad Prism (version 9.2). Two-way ANOVA was used to analyze all data with two independent variables as time and treatment or concentration and treatment, data is reported as Mean+/−SEM.

C2-less SHIP1 protein = experiment: Agonism with SHIP1 protein lacking the C2 domain; format: biochemical; settings: C2 domain of the protein deleted
Excerpt: (§1) New small molecule SHIP1 activators are needed to explore the effects of these molecules in IBD and AD model systems to define the role of SHIP in these disorders. […] The K306 structure is related to a series of sulfonamide based endothelial lipase inhibitors. As the molecule came from screening, no information was available about structure activity relationships in this SHIP1 activator. Sulfonamides have been used previously as phosphate mimics in the development of phosphatase inhibitors however, so it is possible that one of the sulfonamides in the K306 structure is mimicking the one of the phosphates on PI(3,4)P2, the endogenous ligand for allosteric activation of SHIP1. […] Given that K306 provides a new class of SHIP1 activators with a unique binding site that could have implications in Crohn's disease and Alzheimer's disease, synthetic studies were initiated on the structure.

microglia = experiment: Phagolysosomal degradation of synaptosomes and dead neurons by microglia; format: cell-based; settings: SHIP1-dependent manner
Excerpt: as §1

Cc1sc(S(=O)(=O)N2CCSCC2)cc1NC(=O)CNS(=O)(=O)c1ccc(F)cc1 [Compound K306, 2-(4-Fluorobenzenesulfonamido)-N-[2-methyl-5-(thiomorpholine-4-sulfonyl)thiophen-3-yl]acetamide]
IL-6 production induced by LPS [1]: significantly diminished | Agonism with C2-less SHIP1 protein (C2-less SHIP1 protein): maintained agonism | Phagolysosomal degradation of synaptosomes and dead neurons by microglia (microglia): enhance phagolysosomal degradation
